Measured values published in PubChem BioAssay AID2060626 (Molecular Pharmacology Branch, DTP, NCI, 2025).

System: 168753-222-R-J1-PDC complex spheroid viability
Experiment: Anticancer human tumor 168753-222-R-J1-PDC patient-derived bladder carcinoma cell line growth inhibition [CLK]
Conditions: for IC50: curve of first compound; for viability, T/C: stronger effect = lower value
Outline: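 Patient-derived tumor cells grown as complex spheroids with HUVEC endothelial cells and mesenchymal stem cells, treated with drug combinations. Concentrations descend in half-log steps from near clinical Cmax, or from 10 microM if Cmax unknown.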

[1] = second compound 0.0316 µM, first compound 0.0316 µM
[2] = second compound 0.0316 µM, first compound 0.1 µM
[3] = second compound 0.0316 µM, first compound 0.316 µM
[4] = second compound 0.0316 µM, first compound 1 µM
[5] = second compound 0.1 µM, first compound 0.0316 µM
[6] = second compound 0.1 µM, first compound 0.1 µM
[7] = second compound 0.1 µM, first compound 0.316 µM
[8] = second compound 0.1 µM, first compound 1 µM
[9] = second compound 0.316 µM, first compound 0.0316 µM
[10] = second compound 0.316 µM, first compound 0.1 µM
[11] = second compound 0.316 µM, first compound 0.316 µM
[12] = second compound 0.316 µM, first compound 1 µM
[13] = second compound 1 µM, first compound 0.0316 µM
[14] = second compound 1 µM, first compound 0.1 µM
[15] = second compound 1 µM, first compound 0.316 µM
[16] = second compound 1 µM, first compound 1 µM
[17] = second compound 3.16 µM, first compound 0.0316 µM
[18] = second compound 3.16 µM, first compound 0.1 µM
[19] = second compound 3.16 µM, first compound 0.316 µM
[20] = second compound 3.16 µM, first compound 1 µM
[21] = second compound 10 µM, first compound 0.0316 µM
[22] = second compound 10 µM, first compound 0.1 µM
[23] = second compound 10 µM, first compound 0.316 µM
[24] = second compound 10 µM, first compound 1 µM
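Note: viability measured after seven days of drug exposure.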
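Throughout, for viability, T/C: luminescence signal used as surrogate for viable cell amount; 100% = DMSO vehicle control wells.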

Q: `C=CC(=O)Nc1cc(Nc2nccc(-c3cn(C)c4ccccc34)n2)c(OC)cc1N(C)CCN(C)C` + CNC(=O)c1ccc(Nc2nc(OC3CCCC3)c3c(-c4ccc5nc(C)oc5c4)c[nH]c3n2)c(OC)c1 was tested. Which IC50 (second compound 0.0316 µM) did it give?
A: > 300 nM

Q: And the IC50 (second compound 0.1 µM)?
A: > 300 nM

Q: And the IC50 (second compound 0.316 µM)?
A: > 300 nM

Q: What about the IC50 (second compound 1 µM) of the same compound?
A: < 0.949 nM

Q: What about the IC50 (second compound 3.16 µM) of the same compound?
A: < 0.949 nM

Q: And the IC50 (second compound 10 µM)?
A: < 0.949 nM

Q: What about the viability, T/C (second compound 0.0316 µM, first compound 0.000949 µM) of the same compound?
A: 122%

Q: And the viability, T/C (second compound 0.0316 µM, first compound 0.003 µM)?
A: 96.3%

Q: And the viability, T/C (second compound 0.0316 µM, first compound 0.00949 µM)?
A: 102%

Q: And the viability, T/C (second compound 0.0316 µM, first compound 0.03 µM)?
A: 102%

Q: What about the viability, T/C (second compound 0.0316 µM, first compound 0.0949 µM) of the same compound?
A: 107%

Q: And the viability, T/C (second compound 0.0316 µM, first compound 0.3 µM)?
A: 103%

Q: What about the viability, T/C (second compound 0.1 µM, first compound 0.000949 µM) of the same compound?
A: 91.1%

Q: What about the viability, T/C (second compound 0.1 µM, first compound 0.003 µM) of the same compound?
A: 87%

Q: What about the viability, T/C (second compound 0.1 µM, first compound 0.00949 µM) of the same compound?
A: 86.7%

Q: What about the viability, T/C (second compound 0.1 µM, first compound 0.03 µM) of the same compound?
A: 76.8%

Q: What about the viability, T/C (second compound 0.1 µM, first compound 0.0949 µM) of the same compound?
A: 91.7%

Q: What about the viability, T/C (second compound 0.1 µM, first compound 0.3 µM) of the same compound?
A: 90.2%

Q: And the viability, T/C (second compound 0.316 µM, first compound 0.000949 µM)?
A: 73.5%

Q: And the viability, T/C (second compound 0.316 µM, first compound 0.003 µM)?
A: 69.6%

Q: What about the viability, T/C (second compound 0.316 µM, first compound 0.00949 µM) of the same compound?
A: 69.3%

Q: And the viability, T/C (second compound 0.316 µM, first compound 0.03 µM)?
A: 63.8%

Q: What about the viability, T/C (second compound 0.316 µM, first compound 0.0949 µM) of the same compound?
A: 71.8%

Q: And the viability, T/C (second compound 0.316 µM, first compound 0.3 µM)?
A: 62.5%

Q: And the viability, T/C (second compound 1 µM, first compound 0.000949 µM)?
A: 37.1%

Q: What about the viability, T/C (second compound 1 µM, first compound 0.003 µM) of the same compound?
A: 39.1%

Q: And the viability, T/C (second compound 1 µM, first compound 0.00949 µM)?
A: 38.5%

Q: And the viability, T/C (second compound 1 µM, first compound 0.03 µM)?
A: 40.8%

Q: And the viability, T/C (second compound 1 µM, first compound 0.0949 µM)?
A: 30.8%

Q: What about the viability, T/C (second compound 1 µM, first compound 0.3 µM) of the same compound?
A: 29%

Q: And the viability, T/C (second compound 3.16 µM, first compound 0.000949 µM)?
A: 18.2%

Q: And the viability, T/C (second compound 3.16 µM, first compound 0.003 µM)?
A: 19.3%

Q: What about the viability, T/C (second compound 3.16 µM, first compound 0.00949 µM) of the same compound?
A: 19.5%

Q: And the viability, T/C (second compound 3.16 µM, first compound 0.03 µM)?
A: 22.8%

Q: And the viability, T/C (second compound 3.16 µM, first compound 0.0949 µM)?
A: 19.6%

Q: What about the viability, T/C (second compound 3.16 µM, first compound 0.3 µM) of the same compound?
A: 16.9%

Q: And the viability, T/C (second compound 10 µM, first compound 0.000949 µM)?
A: 16.3%

Q: What about the viability, T/C (second compound 10 µM, first compound 0.003 µM) of the same compound?
A: 19.8%

Q: And the viability, T/C (second compound 10 µM, first compound 0.00949 µM)?
A: 18.5%

Q: What about the viability, T/C (second compound 10 µM, first compound 0.03 µM) of the same compound?
A: 15.6%

Q: And the viability, T/C (second compound 10 µM, first compound 0.0949 µM)?
A: 19.1%

Q: What about the viability, T/C (second compound 10 µM, first compound 0.3 µM) of the same compound?
A: 15.6%

Q: Which results are given for `CCN1CCN(Cc2ccc(Nc3ncc(F)c(-c4cc(F)c5nc(C)n(C(C)C)c5c4)n3)nc2)CC1` + CNC(=O)c1ccc(Nc2nc(OC3CCCC3)c3c(-c4ccc5nc(C)oc5c4)c[nH]c3n2)c(OC)c1?
A: IC50 (second compound 0.0316 µM): > 1000 nM; IC50 (second compound 0.1 µM): > 1000 nM; IC50 (second compound 0.316 µM): 85.5 nM; IC50 (second compound 1 µM): < 3.16 nM; IC50 (second compound 3.16 µM): < 3.16 nM; IC50 (second compound 10 µM): < 3.16 nM; viability, T/C (second compound 0.0316 µM, first compound 0.00316 µM): 103%; viability, T/C (second compound 0.0316 µM, first compound 0.01 µM): 104%; viability, T/C [1]: 79.3%; viability, T/C [2]: 77%; viability, T/C [3]: 65.5%; viability, T/C [4]: 67.1%; viability, T/C (second compound 0.1 µM, first compound 0.00316 µM): 92.9%; viability, T/C (second compound 0.1 µM, first compound 0.01 µM): 88.5%; viability, T/C [5]: 78.8%; viability, T/C [6]: 70.1%; viability, T/C [7]: 70.4%; viability, T/C [8]: 55.7%; viability, T/C (second compound 0.316 µM, first compound 0.00316 µM): 83.6%; viability, T/C (second compound 0.316 µM, first compound 0.01 µM): 77%; viability, T/C [9]: 67.2%; viability, T/C [10]: 46.3%; viability, T/C [11]: 43%; viability, T/C [12]: 44.6%; viability, T/C (second compound 1 µM, first compound 0.00316 µM): 25.2%; viability, T/C (second compound 1 µM, first compound 0.01 µM): 46.9%; viability, T/C [13]: 25.2%; viability, T/C [14]: 22.5%; viability, T/C [15]: 19.4%; viability, T/C [16]: 26.4%; viability, T/C (second compound 3.16 µM, first compound 0.00316 µM): 26.3%; viability, T/C (second compound 3.16 µM, first compound 0.01 µM): 20.9%; viability, T/C [17]: 18.8%; viability, T/C [18]: 15.4%; viability, T/C [19]: 17%; viability, T/C [20]: 17.7%; viability, T/C (second compound 10 µM, first compound 0.00316 µM): 17.4%; viability, T/C (second compound 10 µM, first compound 0.01 µM): 19.6%; viability, T/C [21]: 17.4%; viability, T/C [22]: 14.6%; viability, T/C [23]: 15.1%; viability, T/C [24]: 18.2%

Q: For `Nc1ccccc1NC(=O)c1ccc(CNC(=O)OCc2cccnc2)cc1` + CNC(=O)c1ccc(Nc2nc(OC3CCCC3)c3c(-c4ccc5nc(C)oc5c4)c[nH]c3n2)c(OC)c1, which IC50 (second compound 0.0316 µM) is on record?
A: 5880 nM

Q: And the IC50 (second compound 0.1 µM)?
A: 5460 nM

Q: What about the IC50 (second compound 0.316 µM) of the same compound?
A: 4110 nM

Q: What about the IC50 (second compound 1 µM) of the same compound?
A: < 31.6 nM

Q: What about the IC50 (second compound 3.16 µM) of the same compound?
A: < 31.6 nM

Q: And the IC50 (second compound 10 µM)?
A: < 31.6 nM

Q: And the viability, T/C [1]?
A: 99.1%

Q: What about the viability, T/C [2] of the same compound?
A: 101%

Q: And the viability, T/C [3]?
A: 90.6%

Q: What about the viability, T/C [4] of the same compound?
A: 90.6%

Q: And the viability, T/C (second compound 0.0316 µM, first compound 3.16 µM)?
A: 84.4%

Q: What about the viability, T/C (second compound 0.0316 µM, first compound 10 µM) of the same compound?
A: 21.6%

Q: What about the viability, T/C [5] of the same compound?
A: 98.8%

Q: And the viability, T/C [6]?
A: 84.8%

Q: What about the viability, T/C [7] of the same compound?
A: 85.8%

Q: What about the viability, T/C [8] of the same compound?
A: 82.9%

Q: And the viability, T/C (second compound 0.1 µM, first compound 3.16 µM)?
A: 81.2%

Q: And the viability, T/C (second compound 0.1 µM, first compound 10 µM)?
A: 15.4%

Q: And the viability, T/C [9]?
A: 80%

Q: What about the viability, T/C [10] of the same compound?
A: 68.7%

Q: What about the viability, T/C [11] of the same compound?
A: 62.2%

Q: What about the viability, T/C [12] of the same compound?
A: 78.3%

Q: What about the viability, T/C (second compound 0.316 µM, first compound 3.16 µM) of the same compound?
A: 63.1%

Q: What about the viability, T/C (second compound 0.316 µM, first compound 10 µM) of the same compound?
A: 6.28%

Q: And the viability, T/C [13]?
A: 33.9%

Q: And the viability, T/C [14]?
A: 39%

Q: And the viability, T/C [15]?
A: 36.5%

Q: What about the viability, T/C [16] of the same compound?
A: 41.4%

Q: What about the viability, T/C (second compound 1 µM, first compound 3.16 µM) of the same compound?
A: 44.7%

Q: And the viability, T/C (second compound 1 µM, first compound 10 µM)?
A: 4.99%

Q: And the viability, T/C [17]?
A: 27.1%

Q: And the viability, T/C [18]?
A: 22.3%

Q: What about the viability, T/C [19] of the same compound?
A: 29.8%

Q: And the viability, T/C [20]?
A: 41.7%

Q: And the viability, T/C (second compound 3.16 µM, first compound 3.16 µM)?
A: 25.7%

Q: And the viability, T/C (second compound 3.16 µM, first compound 10 µM)?
A: 3.07%

Q: And the viability, T/C [21]?
A: 19.5%

Q: And the viability, T/C [22]?
A: 21%

Q: And the viability, T/C [23]?
A: 28.1%

Q: What about the viability, T/C [24] of the same compound?
A: 27.5%

Q: And the viability, T/C (second compound 10 µM, first compound 3.16 µM)?
A: 21.1%

Q: And the viability, T/C (second compound 10 µM, first compound 10 µM)?
A: 0.71%
